Assay results from patent publication US7468462B2, “Therapeutic agents for the treatment of cancer, metabolic diseases and skin disorders” (Auspex Pharmaceuticals, priority 2004, dated 2008).

Target: T1, RAR-α (Homo sapiens, UniProt P10276)
T1 construct: The Plasmid pGEG-hRAR-α for full-length RAR-α expression; made in house; host or cells: E. coli BL21 (DE3)
T1 sequence (P10276 1-462): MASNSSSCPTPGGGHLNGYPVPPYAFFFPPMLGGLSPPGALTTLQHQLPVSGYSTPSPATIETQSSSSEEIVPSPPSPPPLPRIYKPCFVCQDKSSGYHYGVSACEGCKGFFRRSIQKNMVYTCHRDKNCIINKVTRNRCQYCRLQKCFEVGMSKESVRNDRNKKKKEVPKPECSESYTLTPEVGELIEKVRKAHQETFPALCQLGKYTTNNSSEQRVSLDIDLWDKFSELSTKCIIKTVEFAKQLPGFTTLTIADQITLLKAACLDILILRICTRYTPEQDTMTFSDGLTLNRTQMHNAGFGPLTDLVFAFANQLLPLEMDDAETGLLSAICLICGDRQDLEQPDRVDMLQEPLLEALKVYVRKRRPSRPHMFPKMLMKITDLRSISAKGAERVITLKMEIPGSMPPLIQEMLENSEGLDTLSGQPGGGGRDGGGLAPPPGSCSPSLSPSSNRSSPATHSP
Assay: Competitive radioligand (tritium labeled tRA) hydroxylapatite binding assay in E. coli expressed RAR-α
Details: read-out: Kd (mircomolar)
Experimental: After correcting for non-specific binding, IC50 values were determined.

Row | Compound | Kd [µM]
1 | COc1ccc(-c2ccc3cc(C4=C(O)CCC4=O)ccc3c2)cc1C12CC3CC(CC(C3)C1)C2 [Example 8, 2-[6-(3-Adamantan-1-yl-4-methoxyphenyl)-naphthalen-2-yl]-3-hydroxy-cyclopent-2-enone] | 16
2 | COc1ccc(-c2ccc3cc(C(=O)O)ccc3c2)cc1C12CC3CC(CC(C3)C1)C2 [Adapalene] | 0.3
